Legend:
Type in all cases: in vivo
Spodoptera eridania [1] = assay: Southern armyworm on oats - seed treatment evaluation; conditions: 1.0 wt. % on oat seeds
Description: Cotton aphid and southern armyworm (on cotton and oats) - seed treatment evaluation: Technical material was applied to the seed of oats and cotton by placing the compound and the seed in an appropriate sized jar and rolling the jar on a ball mill. Assay of the material applied to the seed was by weight. Seed was then planted. When germinated and emerged, the plants were infested at the appropriate intervals with host insects. Mortality was assessed on those insects.

Spodoptera eridania [2] = assay: Southern armyworm on sorghum - systemic evaluation (soil drench); conditions: systemic via root uptake, 20 ppm soil concentration dose (and subsequent dilutions), six days
Description: Cotton aphid and southern armyworm (on cotton) and greenbug and southern armyworm (on sorghum) - systemic evaluation: A stock solution or suspension was prepared to deliver 5 ml of a 20 ppm soil concentration dose (and subsequent dilutions) as a drench to 6 cm pots containing cotton and sorghum plants. The cotton plants were previously infested with cotton aphids about two days before treatment and greenbug one day before treatment. After holding the plants about three days, the plants were rated for aphid activity. Again at six days, the plants were rated for aphid activity and the cotton aphids and greenbugs were counted and mortality was assessed. Portions of the cotton and sorghum foliage were excised, placed in separate plastic containers, and infested with second instar larvae of southern armyworms. The potted plants were dipped in sulfotepp to kill the remaining aphids and returned to the greenhouse for regrowth. Thirteen days after treatment the remaining foliage was excised and fed to southern armyworm. Mortality was assessed six days after infestation.

Meloidogyne incognita = assay: Southern root-knot nematode test (gall rating on tomato); conditions: effective dose to provide a 3 gall rating (light galling)
Description: For southern root-knot nematod and systemic tests for southern armyworm, cotton aphid, tobacco budworm and greenbug, a stock solution or suspension was prepared by adding 15 mg of the test compound to 250 mg of dimethylformamide, 1250 mg of acetone and 3 mg of the emulsifier blend referenced above. Water was then added to provide a test compound concentration of 150 ppm. When necessary, sonication was provided to insure complete dispersion.
Southern root-knot nematode: Infected roots of tomato plants, containing egg masses of southern root-knot nematode, were removed from a stock culture and cleaned of soil by shaking and washing with tap water. The nematode eggs were separated from the root tissue and rinsed with water. Samples of the egg suspension were placed on a fine screen over a receiving bowl, in which the water level was adjusted to be in contact with the screen. From the bowl, juveniles were collected on a fine screen. […] At the termination of the test, roots of the tomato seedling were removed from the cone and evaluated for galling on a rating scale relative to the untreated control as follows: • 1- severe galling, equal t untreated control • 3- light galling • 4- very light galling • 5- no galling, ie, complete control

Spodoptera eridania [3] = assay: Southern armyworm on tomato - systemic evaluation; conditions: systemic via root uptake; 6.6 ppm soil concentration; foliage excised 21 days after treatment, larvae examined after about 5 days
Description: For southern root-knot nematod and systemic tests for southern armyworm, cotton aphid, tobacco budworm and greenbug, a stock solution or suspension was prepared by adding 15 mg of the test compound to 250 mg of dimethylformamide, 1250 mg of acetone and 3 mg of the emulsifier blend referenced above. Water was then added to provide a test compound concentration of 150 ppm. When necessary, sonication was provided to insure complete dispersion. Southern armyworm on tomato - systemic evaluation: This test was conducted in conjunction with the southern root-knot nematode evaluation (discussed below). The tomato plants, grown in the soil (at an initial compound test screening rate of 6.6 ppm soil concentration or about 150 ppm solution concentration) for nematode evaluation, were then utilized for evaluation of a compound's uptake via roots and subsequent systemic transport to the tomato foliage. At the termination of the nematode test, 21 days after treatment, the tomato foliage was excised, placed into a plastic container, and infested with second instar larvae of southern armyworm. After about 5 days, the larvae were examined for percent mortality.

Schizaphis graminum = assay: Greenbug on sorghum - systemic evaluation (soil drench); conditions: systemic via root uptake, soil drench at soil concentrations of the protocols (10.0 or 20 ppm)
Description: (§1) For southern root-knot nematod and systemic tests for southern armyworm, cotton aphid, tobacco budworm and greenbug, a stock solution or suspension was prepared by adding 15 mg of the test compound to 250 mg of dimethylformamide, 1250 mg of acetone and 3 mg of the emulsifier blend referenced above. Water was then added to provide a test compound concentration of 150 ppm. When necessary, sonication was provided to insure complete dispersion. Cotton aphid and tobacco budworm (on cotton) and greenbug and tobacco budworm (on sorghum) - systemic evaluation: A 7.0 ml aliquot of the 150 ppm nematode test solution was applied to deliver the equivalent of 10.0 ppm soil concentration dose as a drench to 6 cm pots containing cotton and sorghum plants. The cotton plants were previously infested with cotton aphids about two days before treatment and greenbug one day before treatment. After holding the plants about three days, the plants were rated for aphid activity. Again at six days, the plants were rated for aphid activity and the cotton aphids and greenbugs were counted and mortality was assessed. Portions of the cotton and sorghum foliage were excised, placed in separate plastic containers, and infested with second instar larvae of tobacco budworm. The potted plants were dipped in sulfotepp to kill the remaining aphids and returned to the greenhouse for regrowth. Thirteen days after treatment, the remaining foliage was excised and fed to tobacco budworms. Mortality was assessed six days after infestation. Cotton aphid and southern armyworm (on cotton) and greenbug and southern armyworm (on sorghum) - systemic evaluation: A stock solution or suspension was prepared to deliver 5 ml of a 20 ppm soil concentration dose (and subsequent dilutions) as a drench to 6 cm pots containing cotton and sorghum plants. The cotton plants were previously infested with cotton aphids about two days before treatment and greenbug one day before treatment. After holding the plants about three days, the plants were rated for aphid activity. Again at six days, the plants were rated for aphid activity and the cotton aphids and greenbugs were counted and mortality was assessed. Portions of the cotton and sorghum foliage were excised, placed in separate plastic containers, and infested with second instar larvae of southern armyworms. The potted plants were dipped in sulfotepp to kill the remaining aphids and returned to the greenhouse for regrowth. Thirteen days after treatment the remaining foliage was excised and fed to southern armyworm. Mortality was assessed six days after infestation.

Aphis gossypii = assay: Cotton aphid on cotton - systemic evaluation (soil drench); conditions: systemic via root uptake, soil drench at soil concentrations of the protocols (10.0 or 20 ppm)
Description: as §1

Heliothis virescens [4] = assay: Tobacco budworm on sorghum - systemic evaluation (soil drench); conditions: systemic via root uptake, 10.0 ppm soil concentration
Description: For southern root-knot nematod and systemic tests for southern armyworm, cotton aphid, tobacco budworm and greenbug, a stock solution or suspension was prepared by adding 15 mg of the test compound to 250 mg of dimethylformamide, 1250 mg of acetone and 3 mg of the emulsifier blend referenced above. Water was then added to provide a test compound concentration of 150 ppm. When necessary, sonication was provided to insure complete dispersion. Cotton aphid and tobacco budworm (on cotton) and greenbug and tobacco budworm (on sorghum) - systemic evaluation: A 7.0 ml aliquot of the 150 ppm nematode test solution was applied to deliver the equivalent of 10.0 ppm soil concentration dose as a drench to 6 cm pots containing cotton and sorghum plants. The cotton plants were previously infested with cotton aphids about two days before treatment and greenbug one day before treatment. After holding the plants about three days, the plants were rated for aphid activity. Again at six days, the plants were rated for aphid activity and the cotton aphids and greenbugs were counted and mortality was assessed. Portions of the cotton and sorghum foliage were excised, placed in separate plastic containers, and infested with second instar larvae of tobacco budworm. The potted plants were dipped in sulfotepp to kill the remaining aphids and returned to the greenhouse for regrowth. Thirteen days after treatment, the remaining foliage was excised and fed to tobacco budworms. Mortality was assessed six days after infestation.

Tetranychus urticae = assay: Twospotted spider mite test (foliar, 100 ppm); conditions: foliar bait tests
Description: For mite, aphid, southern armyworm, Mexican bean beetle, and tobacco budworm tests, a solution or suspension was prepared by adding 10 mg of the test compound to a solution of 160 mg of dimethylformamide, 838 mg of acetone, 2 mg of a 3:1 ratio of Triton X-172 : Triton X-152 (respectively, mainly anionic and nonionic low foam emulsifiers which are each anhydro us blends of alkylaryl polyether alcohols with organic sulfonates), and 98.99 g of water. The result was a concentration of 100 ppm of the test compound.
Twospotted spider mite: Leaves infested with adult and nymphal stages of the two-spotted spider mite, obtained from a stock culture were placed on the primary leaves of two bean plants growing in a 6 cm. peat pot. A sufficient number of mites (150-200) for testing were transferred to the fresh plants within a period of twenty-four hours. The potted plants (one pot per compound) were placed on a revolving turntable and sprayed, sufficient to wet the plants to runoff, with 100 ml of the 100 ppm test compound formulation by use of a DeVilbiss spray gun set at 40 psig. air pressure. As an untreated control, 100 ml of the water-acetone-DMF-emulsifier solution, containing no test compound, were also sprayed on infested plants. A treated control with a commercial technical compound, either dicofol or hexythiazox, formulated in the same manner, was tested as a standard. […]

Heliothis virescens [5] = assay: Tobacco budworm - contact evaluation (topical application); conditions: topical or contact tests; application dose of 63 µg/g body weight
Description: For tobacco budworm contact tests, a stock solution was prepared by dissolving the compound in acetone and then further diluted to provide the required serial dilution concentrations.
Tobacco budworm - contact evaluation: The following topical application method provides an assessment of contact toxicity of a compound to tobacco budworm larvae The test compound solution at sequential two-fold dilution concentrations from 10 down to 0.16 µg/µl was applied by a microinjector in repli cated 1 µl portions to the dorsum of approximately 20 mg tobacco budworm larvae. This is equivalent to applied doses of 500 down to 8 µg/g body weight. An acetone treated control, without any test compounds, as also applied. A treated control with a commercial technical compound, cypermethrin or thiodicarb, also in acetone was used as a standard. The treated larvae were placed, individually, in separate plastic petri dishes containing an untreated cotton leaf and a moist dental wick. The treated larvae were maintained at about 27°C and 50% relative humidity. The percent mortality was rated 1 and 4 days after treatment.

Question: Which results are given for `COc1cc(C=Nc2c(SC(F)(F)F)c(C#N)nn2-c2c(Cl)cc(C(F)(F)F)cc2Cl)ccc1O` [CMPD NO. 2, 1-(2,6-dichloro-4-trifluoromethylphenyl)-3-cyano-4-trifluoromethylsulfenyl-5-[(4-hydroxy-3-methoxyphenyl)methylideneimino]pyrazole]?
Answer: control of southern armyworm after six days (Spodoptera eridania [1]): 100%; control of southern armyworm after six days on sorghum (Spodoptera eridania [2]): 30-100%

Question: Which “ED3 value on SRKN larvae” value (Meloidogyne incognita) does the source give for `N#Cc1nn(-c2c(Cl)cc(C(F)(F)F)cc2Cl)c(N=Cc2cccs2)c1SC(F)(F)F` [compound 7] here?
Answer: about 21 kg/ha

Question: What does the source list for `COc1cc(C=Nc2c([S+]([O-])C(F)(F)F)c(C#N)nn2-c2c(Cl)cc(C(F)(F)F)cc2Cl)ccc1O` (stereo not drawn) [compound 10, 1-(2,6-dichloro-4-trifluoromethylphenyl)-3-cyano-4-trifluoromethylsulfinyl-5-[(4-hydroxy-3-methoxyphenyl)methylideneimino]pyrazole]?
Answer: ED3 value on SRKN larvae (Meloidogyne incognita): about 21 kg/ha; control of southern armyworm on tomato (Spodoptera eridania [3]): 50-100%; control of southern armyworm after six days on sorghum (Spodoptera eridania [2]): 30-100%

Question: Which results are given for `N#Cc1nn(-c2c(Cl)cc(C(F)(F)F)cc2Cl)c(N=Cc2ccncc2)c1SC(F)(F)F` [compound 16, 1-(2,6-dichloro-4-trifluoromethylphenyl)-3-cyano-4-trifluoromethylsulfenyl-5-[(4-pyridyl)-methylideneimino]pyrazole]?
Answer: control of greenbug after six days on sorghum (Schizaphis graminum): 30-100%; control of cotton aphid after six days on cotton (Aphis gossypii): 30-100%; control of tobacco budworm after six days on sorghum (Heliothis virescens [4]): 100%

Question: How did the control of mites (Tetranychus urticae) turn out when `CCOc1cc(C=Nc2c([S+]([O-])C(F)(F)F)c(C#N)nn2-c2c(Cl)cc(C(F)(F)F)cc2Cl)ccc1O` (stereo not drawn) [compound 47] was run?
Answer: 30-70%

Question: With `N#Cc1nn(-c2c(Cl)cc(C(F)(F)F)cc2Cl)c(N=Cc2cc[n+]([O-])cc2)c1SC(F)(F)F` [compound 18, 1-(2,6-dichloro-4-trifluoromethylphenyl)-3-cyano-4-trifluoromethylsulfenyl-5-[(4-pyridyl-N-oxide)methylideneimino]pyrazole] as the compound, how does the “control of greenbug after six days on sorghum” value (Schizaphis graminum) read?
Answer: 30-100%

Question: What about the “control of cotton aphid after six days on cotton” value (Aphis gossypii) of the same compound?
Answer: 30-100%

Question: And the “control of tobacco budworm after six days on sorghum” value (Heliothis virescens [4])?
Answer: 100%

Question: For `COc1cc(C=Nc2c(SC(F)(F)F)c(C#N)nn2-c2c(Cl)cc(C(F)(F)F)cc2Cl)cc(O)c1O` [compound 40], which “control of tobacco budworm (TBW)” value (Heliothis virescens [5]) is on record?
Answer: 50-100%

Question: What about the control of mites (Tetranychus urticae) of the same compound?
Answer: 30-70%

Source: patent EP0511845B1, “Pesticidal 1-aryl-5-(substituted alkylideneimino)-pyrazoles” (AVENTIS CROPSCIENCE S.A., priority 1991, dated 1992)
